Measured values: ChEMBL document CHEMBL6114998, “Design, Synthesis, and Pharmacological Evaluation of Quinazoline and Quinoline Derivatives as Potent ENPP1 Inhibitors for Cancer Immunotherapy” (J Med Chem, 2025)
Active and inactive are the calls of the source. No cut-off for these calls is given here.

Tests used:
[1] = AUC(0 to t) in Sprague-Dawley rat at 10 mg/kg, iv measured upto 24 hrs by LC-MS/MS analysis; type: ADME, organism-based; details: in vivo
[2] = Apparent permeability across apical to basal side in human Caco-2 cells at 10 uM by LC-MS/MS analysis; type: ADME, cell-based
[3] = Cmax in Sprague-Dawley rat at 10 mg/kg, iv measured upto 24 hrs by LC-MS/MS analysis; type: ADME, organism-based; details: in vivo
[4] = molecular target: T1, Ectonucleotide pyrophosphatase/phosphodiesterase family member 1 (Homo sapiens, UniProt P22413); assay: Inhibition of ENPP1 in human MDA-MB-231 cells using p-NPh-5TMP as substrate at pH 8.5 measured after 60 mins; type: cell-based
T1 sequence (P22413 whole entry): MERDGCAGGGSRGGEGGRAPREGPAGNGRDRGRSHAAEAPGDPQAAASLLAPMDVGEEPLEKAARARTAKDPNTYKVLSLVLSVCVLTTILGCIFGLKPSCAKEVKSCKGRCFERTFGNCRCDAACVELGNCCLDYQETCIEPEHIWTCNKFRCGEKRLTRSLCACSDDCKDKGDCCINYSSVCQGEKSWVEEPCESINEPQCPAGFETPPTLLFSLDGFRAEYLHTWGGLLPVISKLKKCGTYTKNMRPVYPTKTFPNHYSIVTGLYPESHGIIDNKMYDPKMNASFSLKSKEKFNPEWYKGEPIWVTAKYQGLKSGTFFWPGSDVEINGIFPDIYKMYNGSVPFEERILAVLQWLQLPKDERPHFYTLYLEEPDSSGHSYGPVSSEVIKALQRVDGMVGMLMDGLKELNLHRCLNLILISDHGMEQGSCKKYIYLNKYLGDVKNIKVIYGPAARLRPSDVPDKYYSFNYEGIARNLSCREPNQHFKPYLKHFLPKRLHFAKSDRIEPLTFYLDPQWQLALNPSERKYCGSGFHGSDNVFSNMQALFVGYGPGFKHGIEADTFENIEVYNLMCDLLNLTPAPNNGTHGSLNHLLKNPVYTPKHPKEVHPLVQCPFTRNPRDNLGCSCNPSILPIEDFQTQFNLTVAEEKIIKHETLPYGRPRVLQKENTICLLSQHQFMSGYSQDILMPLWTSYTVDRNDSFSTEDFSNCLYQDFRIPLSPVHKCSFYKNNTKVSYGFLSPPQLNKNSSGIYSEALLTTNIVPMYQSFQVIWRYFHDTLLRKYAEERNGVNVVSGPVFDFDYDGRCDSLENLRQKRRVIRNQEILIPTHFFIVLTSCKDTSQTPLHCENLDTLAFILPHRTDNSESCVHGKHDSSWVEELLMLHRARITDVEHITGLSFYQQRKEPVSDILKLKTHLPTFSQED

[5] = Apparent permeability across basal to apical side in human Caco-2 cells at 10 uM by LC-MS/MS analysis; type: ADME, cell-based
[6] = Toxicity in female BALB/c mouse allografted with mouse CT26 cells assessed as change in body weight at 200 mg/kg QD, po measured every 2 days for 12 days; type: organism-based; details: in vivo, 288 h, time 12 day
THP1-Dual KO-STING [7] = assay: Cytotoxicity against human THP1-Dual KO-STING cells assessed as effect on cell viability at 1 uM followed by addition of conditioned medium containing 36 hrs compound pretreated human MDA-MB-231 cells measured after 24 hrs by celltiter-glo assay; type: functional, cell-based; details: time 60.0 hrs
[8] = Half life in Sprague-Dawley rat at 10 mg/kg, iv measured upto 24 hrs by LC-MS/MS analysis; type: ADME, organism-based; details: in vivo
[9] = molecular target: T1, Ectonucleotide pyrophosphatase/phosphodiesterase family member 1; assay: Inhibition of recombinant human ENPP1 transfected in HEK293T cells using cGAMP as substrate at pH 7.5 measured after 3.5 hrs by luminescence based AMP-glo assay; type: cell-based
[10] = Clearance in Sprague-Dawley rat at 10 mg/kg, iv measured upto 24 hrs by LC-MS/MS analysis; type: ADME, organism-based; details: in vivo
[11] = Efflux ratio of apparent permeability from basolateral to apical side over apical to basolateral side in human Caco-2 cells at 10 uM by LC-MS/MS analysis; type: ADME, cell-based
[12] = MRT (0 to t) in Sprague-Dawley rat at 10 mg/kg, iv measured upto 24 hrs by LC-MS/MS analysis; type: ADME, organism-based; details: in vivo
THP1-Dual [13] = assay: Activation of STING-mediated immune response in human THP1-Dual cells assessed as increase in cGAMP-induced ISRE activation by measuring type 1 IFN response at 10 to 1000 nM preincubated in conditioned medium containing 36 hrs compound treated with human MDA-MB-231 cells measured after 24 hrs by quanti-luc luciferase assay; type: cell-based; details: filed as activator, dose 10-1000 nM, time 60.0 hrs
[14] = molecular target: T1, Ectonucleotide pyrophosphatase/phosphodiesterase family member 1; assay: Inhibition of ENPP1 in human MDA-MB-231 cells using p-NPh-5TMP as substrate at pH 9.5 measured after 60 mins; type: cell-based
THP1-Dual [15] = assay: Cytotoxicity against human THP1-Dual cells assessed as effect on cell viability at 10 to 1000 nM pretreated with compound in serum-free medium for 36 hrs in presence of cGAMP followed by replacement with condition medium and measured after 24 hrs by celltiter-glo assay; type: functional, cell-based; details: dose 10-1000 nM, time 60.0 hrs
CT26 = assay: Antitumor activity against mouse CT26 cells allografted in female BALB/c mouse assessed as tumor growth inhibition at 200 mg/kg QD, po measured every 2 days for 12 days relative to control; type: functional; details: CT26, 288 h, time 12 day, read-out: TGI
THP-1 = assay: Activation of STING signalling pathway in human THP-1 cells assessed as increase in IFNB1 expression at 10 to 1000 nM measured after 18 hrs in presence of cGAMP by qPCR analysis; type: cell-based; details: filed as activator, dose 10-1000 nM
[16] = molecular target: Voltage-gated inwardly rectifying potassium channel KCNH2 (Homo sapiens, UniProt Q12809); assay: Inhibition of hERG expressed in CHO cells by QPatch automated patch-clamp assay; type: toxicity, cell-based
Chain of Voltage-gated inwardly rectifying potassium channel KCNH2 (Q12809 whole entry): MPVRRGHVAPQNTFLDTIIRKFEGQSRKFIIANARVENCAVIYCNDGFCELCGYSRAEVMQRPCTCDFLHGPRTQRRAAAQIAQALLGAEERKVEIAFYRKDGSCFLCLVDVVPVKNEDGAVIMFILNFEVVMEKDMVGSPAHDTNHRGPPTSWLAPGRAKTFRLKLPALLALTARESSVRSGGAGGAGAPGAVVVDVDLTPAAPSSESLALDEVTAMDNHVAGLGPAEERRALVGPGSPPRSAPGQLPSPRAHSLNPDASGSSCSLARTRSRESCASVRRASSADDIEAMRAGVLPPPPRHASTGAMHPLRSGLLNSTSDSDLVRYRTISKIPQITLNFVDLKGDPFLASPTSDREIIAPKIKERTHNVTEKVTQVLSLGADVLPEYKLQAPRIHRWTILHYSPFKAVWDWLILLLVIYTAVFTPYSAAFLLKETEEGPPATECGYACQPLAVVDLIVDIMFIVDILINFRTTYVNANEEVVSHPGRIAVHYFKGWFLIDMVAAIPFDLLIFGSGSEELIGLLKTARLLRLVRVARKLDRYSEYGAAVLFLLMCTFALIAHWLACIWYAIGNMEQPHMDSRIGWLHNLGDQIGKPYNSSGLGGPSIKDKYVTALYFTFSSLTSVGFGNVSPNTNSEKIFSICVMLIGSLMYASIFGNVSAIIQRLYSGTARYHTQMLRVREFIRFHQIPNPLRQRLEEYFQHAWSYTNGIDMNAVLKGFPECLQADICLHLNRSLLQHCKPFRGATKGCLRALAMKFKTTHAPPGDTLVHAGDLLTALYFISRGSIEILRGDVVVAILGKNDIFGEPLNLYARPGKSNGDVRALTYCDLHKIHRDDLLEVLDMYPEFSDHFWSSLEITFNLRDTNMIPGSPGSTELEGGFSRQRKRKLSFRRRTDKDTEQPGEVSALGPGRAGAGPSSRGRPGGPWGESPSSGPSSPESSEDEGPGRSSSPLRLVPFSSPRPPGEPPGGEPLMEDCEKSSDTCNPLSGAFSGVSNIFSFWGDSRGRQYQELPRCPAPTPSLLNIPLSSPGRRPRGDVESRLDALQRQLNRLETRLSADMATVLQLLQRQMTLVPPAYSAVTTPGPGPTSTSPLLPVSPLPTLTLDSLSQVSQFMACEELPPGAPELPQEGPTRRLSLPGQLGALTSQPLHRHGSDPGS

[17] = molecular target: T1, Ectonucleotide pyrophosphatase/phosphodiesterase family member 1; assay: Binding affinity to human ENPP1 assessed as inhibition constant
THP1-Dual [18] = assay: Activation of STING-mediated immune response in human THP1-Dual cells assessed as increase in cGAMP-induced ISRE activation preincubated in conditioned medium containing 36 hrs compound treated with human MDA-MB-231 cells measured after 24 hrs by quanti-luc luciferase assay; type: cell-based; details: filed as activator, time 60.0 hrs
THP1-Dual KO-STING [19] = assay: Activation of STING-mediated immune response in human THP1-Dual KO-STING cells assessed as cGAMP-induced ISRE activation at 1 uM preincubated with conditioned medium containing 36 hrs compound treated with human MDA-MB-231 cells and measured after 24 hrs by quanti-luc luciferase assay; type: cell-based; details: filed as activator, time 60.0 hrs

Structure (SMILES)	IC50 [9]	IC50 [14]	further results
Cn1nc(Cc2ccc(NS(N)(=O)=O)cc2)c2ccccc2c1=O	1.38 µM	0.556 µM	AUC(0-t) at 24 h [1]: 27900 ng·h/mL; Papp A→B at 10 µM [2]: 6.06 ×10⁻⁶ cm/s; Cmax [3]: 11400 ng/mL; IC50 [4]: 4.56 µM; Papp B→A at 10 µM [5]: 23.2 ×10⁻⁶ cm/s; Activity [6]: Non-toxic; Activity (THP1-Dual KO-STING [7]): Active; half-life [8]: 3.24 h; clearance [10]: 6.18 mL/min/kg; efflux ratio at 10 µM [11]: 3.82; MRT last at 24 h [12]: 2.92 h; Activity (THP1-Dual [13]): Active; Activity (THP1-Dual [15]): Active; inhibition in vivo at 200 mg/kg (CT26): 39.4%
COc1cccc2c(N3CCC(C#N)(CNS(N)(=O)=O)CC3)c(C#N)cnc12	0.00665 µM	0.00097 µM	Activity (THP-1): Active; IC50 [16]: > 40 µM
COc1cccc2c(N[C@H]3CC[C@H](CNS(N)(=O)=O)CC3)c(C#N)cnc12	> 1 µM	> 1 µM	–
COc1cccc2c(NC3CCC(NS(N)(=O)=O)CC3)c(C#N)cnc12 (stereo unspecified)	0.0403 µM	0.00862 µM	–
COc1cccc2c(N3CCC(C)(CNS(N)(=O)=O)CC3)c(C#N)cnc12	0.00384 µM	0.00107 µM	Activity (THP-1): Active; IC50 [16]: > 40 µM
COc1cccc2c(NC34CC(NS(N)(=O)=O)(C3)C4)ncnc12	0.0951 µM	> 1 µM	–
COc1cccc2c(N[C@H]3CC[C@H](CNS(N)(=O)=O)CC3)ncnc12	> 1 µM	> 1 µM	–
COc1cccc2c(N3CCC(F)(CNS(N)(=O)=O)CC3)c(C#N)cnc12	0.00328 µM	0.00123 µM	Activity (THP-1): Active
COc1cccc2c(N[C@H]3CC[C@@H](NS(N)(=O)=O)CC3)ncnc12	0.0276 µM	0.042 µM	–
COc1cccc2c(N3CC4CC3CC4CNS(N)(=O)=O)c(C#N)cnc12 (stereo unspecified)	0.0555 µM	0.0232 µM	–
COc1cccc2c(N3CCC(O)(CNS(N)(=O)=O)CC3)c(C#N)cnc12	0.0116 µM	0.00184 µM	Activity (THP-1): Active
COc1cccc2c(N[C@H]3CC[C@H](NS(N)(=O)=O)CC3)ncnc12	0.37 µM	> 1 µM	–
COc1cccc2c(NC3CC(NS(N)(=O)=O)C3)ncnc12 (stereo unspecified)	0.438 µM	> 1 µM	–
COc1cccc2c(N[C@H]3CC[C@@H](NS(N)(=O)=O)CC3)c(C#N)cnc12	0.018 µM	0.0107 µM	–
COc1cccc2c(NC3CCC(NS(N)(=O)=O)CC3)ncnc12 (stereo unspecified)	0.156 µM	> 1 µM	–
COc1cccc2c(N3CCC(CCP(=O)(O)O)CC3)ncnc12	0.0005 µM	0.0501 µM	AUC(0-t) at 24 h [1]: 1780 ng·h/mL; Papp A→B at 10 µM [2]: 0.118 ×10⁻⁶ cm/s; Cmax [3]: 4800 ng/mL; IC50 [4]: 0.015 µM; Papp B→A at 10 µM [5]: 0.394 ×10⁻⁶ cm/s; Activity (THP-1): Active; Activity (THP1-Dual KO-STING [7]): Active; half-life [8]: 0.878 h; clearance [10]: 94 mL/min/kg; efflux ratio at 10 µM [11]: 3.34; MRT last at 24 h [12]: 0.39 h; Ki [17]: < 0.002 µM; Activity (THP1-Dual [18]): Dose-dependent-effect; Activity (THP1-Dual KO-STING [19]): Active; Activity (THP1-Dual [15]): Active
COc1cccc2c(NC3CC(NS(N)(=O)=O)C3)c(C#N)cnc12 (stereo unspecified)	0.0537 µM	0.0166 µM	–
COc1cccc2c(NC34CC(NS(N)(=O)=O)(C3)C4)c(C#N)cnc12	0.00622 µM	0.0103 µM	–

More lines, main results first:

IC50 [9]	IC50 [14]	Structure (SMILES)	further results
0.0953 µM	> 1 µM	COc1cccc2c(N3CCC4(CC3)CC4NS(N)(=O)=O)ncnc12 (stereo unspecified)	–
0.0237 µM	0.0062 µM	COc1cccc2c(N3CCC4(CC3)CC4NS(N)(=O)=O)c(C#N)cnc12 (stereo unspecified)	–
0.0277 µM	0.00678 µM	COc1cccc2c(N3CCC4(CC(NS(N)(=O)=O)C4)C3)c(C#N)cnc12 (stereo unspecified)	–
0.0149 µM	0.00288 µM	COc1cccc2c(N3CCC(F)(CNS(N)(=O)=O)CC3)ncnc12	–
0.0102 µM	0.00441 µM	COc1cccc2c(N3CCC(C)(CNS(N)(=O)=O)CC3)ncnc12	–
0.455 µM	> 1 µM	COc1cccc2c(N3CCC4(CC3)CC(NS(N)(=O)=O)C4)ncnc12	–
0.305 µM	0.154 µM	COc1cccc2c(N3CCC(O)(CCNS(N)(=O)=O)CC3)ncnc12	–
0.572 µM	> 1 µM	COc1cccc2c(N3CCC4(CC3)CC(NS(N)(=O)=O)CO4)c(C#N)cnc12 (stereo unspecified)	–
0.0149 µM	0.00506 µM	COc1cccc2c(N3CCC4(CC(NS(N)(=O)=O)C4)C3)ncnc12 (stereo unspecified)	–
0.373 µM	> 1 µM	COc1cccc2c(N3CCC4(CC3)CC(NS(N)(=O)=O)C4)c(C#N)cnc12	–
